Paper PMC11187260, “Unraveling the interconversion pharmacokinetics and oral bioavailability of the major ginger constituents: [6]-gingerol, [6]-shogaol, and zingerone after single-dose administration in rats” (Frontiers in Pharmacology, 2024)

Columns and labels:
Format in all cases: in vivo, Female Sprague Dawley rats
[1] = Pharmacokinetics after single intravenous administration (3 mg/kg), plasma LC-MS/MS; conditions: mean ± SD n=6
Procedure: This study is composed of two sections; the first section involves an investigation of the interconversion pharmacokinetics of the pure compounds, and the second focuses on tissue distribution. All rats were transferred to metabolic cages and fasted overnight for at least 10 h. The animals were then randomly divided into four groups (6 rats/group) to receive a single intravenous (i.v.) administration of either 6G, 6S, zingerone, or vehicle via the lateral tail vein at a dosage of 3 mg/kg. After a 7-week washout period, the rats received 30 mg/kg of the same test compounds through a single oral (p.o.) administration. Following each administration, blood samples (300 µL) were collected in heparinized tubes from the lateral tail vein (while rats were under anesthesia with isoflurane) at specified time points: 0.083, 0.25, 0.5, 1, 1.5, 2, 3, 4, 6, 8, and 24 h after administration. An additional 1 mL of blood sample was collected from each rat at pre-dose (0 h) and post-dose (24 h) for clinical laboratory testing and safety evaluation. All heparinized blood samples were initially centrifuged at 5,000 × g, 4 °C, for 10 min. Subsequently, the plasma was carefully transferred to a cryotube as an aliquot sample and then stored at −40 °C until analysis. Urine and feces were collected during the intervals of 0–24 h and 24–48 h post-dosing, and their weights and volumes were documented. All collected urine and feces samples were stored at −40 °C until analysis. Plasma samples were processed through protein precipitation. In brief, 50 µL of plasma was mixed with 200 µL of methanol containing 50 ng/mL of IS (dihydrocapsaicin). The mixtures were vortexed and centrifuged at 14,000 × g at 4 °C for 10 min. The supernatant was filtered through a […] PVDF membrane (Chrome Tech, MN, USA) before analysis. Investigation of glucuronide conjugations followed a previously published method with some modification ([Wang et al., 2017]; [Songvut et al., 2023]). A 50 μL aliquot of plasma, urine, or feces sample was incubated at 37 °C for a minimum of 30 min with 50 μL of β-glucuronidase (3,000 U/mL) in a sodium phosphate buffer (pH 6.8). For sample extraction, 150 μL of methanol containing 50 μg/L of IS was pipetted into the pre-incubated samples. Subsequently, the mixtures were vortexed for 10 min and then centrifuged at 14,000 × g at 4 °C for 10 min. The supernatants were filtered through a […] PVDF membrane (Chrome Tech, MN, United States) and then analyzed using the validated LC-MS/MS method. Quantitative analysis was conducted using liquid chromatography-tandem mass spectrometry (LC-MS/MS) with a Nexera X2 LCMS-8060NX instrument (Shimadzu, Japan). The instrument included a CBM-40lite system controller, CTO-40C column oven, SIL-40C XR autosampler, LC-40D XR solvent pump unit, FCV-DGU-403 degasser, and 20AH2 switching valve. The LC-MS/MS system was operated with a binary pump and equipped with a triple quadrupole mass spectrometer. Pharmacokinetic parameters were assessed using PK Solutions software (version 2.0) with non-compartmental analysis. The AUC was calculated using the Linear-Log Trapezoidal Method. The maximum plasma concentration (Cmax) and time to reach maximum plasma concentration (Tmax) were taken directly from the graph.

[2] = Percent recovery in urine and feces after intravenous or oral administration; conditions: % of administered dose
Procedure: (§1) This study is composed of two sections; the first section involves an investigation of the interconversion pharmacokinetics of the pure compounds, and the second focuses on tissue distribution. All rats were transferred to metabolic cages and fasted overnight for at least 10 h. The animals were then randomly divided into four groups (6 rats/group) to receive a single intravenous (i.v.) administration of either 6G, 6S, zingerone, or vehicle via the lateral tail vein at a dosage of 3 mg/kg. After a 7-week washout period, the rats received 30 mg/kg of the same test compounds through a single oral (p.o.) administration. Following each administration, blood samples (300 µL) were collected in heparinized tubes from the lateral tail vein (while rats were under anesthesia with isoflurane) at specified time points: 0.083, 0.25, 0.5, 1, 1.5, 2, 3, 4, 6, 8, and 24 h after administration. An additional 1 mL of blood sample was collected from each rat at pre-dose (0 h) and post-dose (24 h) for clinical laboratory testing and safety evaluation. All heparinized blood samples were initially centrifuged at 5,000 × g, 4 °C, for 10 min. Subsequently, the plasma was carefully transferred to a cryotube as an aliquot sample and then stored at −40 °C until analysis. Urine and feces were collected during the intervals of 0–24 h and 24–48 h post-dosing, and their weights and volumes were documented. All collected urine and feces samples were stored at −40 °C until analysis.
Urine samples were centrifuged, and 50 µL of urine was extracted with 200 µL of 100% methanol. The mixture was vortexed for 10 min and subsequently centrifuged at 14,000 × g at 4 °C for 10 min. Feces and organs were weighed and homogenized with methanol (50:50% w/v). The supernatants of the extracted urine, feces, and organs were also filtered through a […] PVDF membrane (Chrome Tech, MN, USA) before analysis.
(§2) Investigation of glucuronide conjugations followed a previously published method with some modification ([Wang et al., 2017]; [Songvut et al., 2023]). A 50 μL aliquot of plasma, urine, or feces sample was incubated at 37 °C for a minimum of 30 min with 50 μL of β-glucuronidase (3,000 U/mL) in a sodium phosphate buffer (pH 6.8). For sample extraction, 150 μL of methanol containing 50 μg/L of IS was pipetted into the pre-incubated samples. Subsequently, the mixtures were vortexed for 10 min and then centrifuged at 14,000 × g at 4 °C for 10 min. The supernatants were filtered through a […] PVDF membrane (Chrome Tech, MN, United States) and then analyzed using the validated LC-MS/MS method.
(§3) Plasma concentration-time profiles were plotted using GraphPad Prism 9.3.0 (GraphPad Software, USA). The absolute oral bioavailability was calculated as follows: F = (AUC p.o./dose p.o.)/(AUC i.v./dose i.v.). The percentage recovery of each administered compound was calculated as the total amount of the drug found in urine or feces divided by the administered dose. The tissue-to-plasma concentration ratios (K p) were calculated by dividing the concentration in the tissue by the corresponding plasma concentration at the respective sampling time point.

[3] = Pharmacokinetics and oral bioavailability after single oral administration (30 mg/kg), plasma LC-MS/MS; conditions: for AUC(0-t) / AUC(0-∞) / Cmax (obs): mean ± SD n=6; for Tmax (obs): median [IQR]
Procedure: as §1
Plasma samples were processed through protein precipitation. In brief, 50 µL of plasma was mixed with 200 µL of methanol containing 50 ng/mL of IS (dihydrocapsaicin). The mixtures were vortexed and centrifuged at 14,000 × g at 4 °C for 10 min. The supernatant was filtered through a […] PVDF membrane (Chrome Tech, MN, USA) before analysis.
as §2
Quantitative analysis was conducted using liquid chromatography-tandem mass spectrometry (LC-MS/MS) with a Nexera X2 LCMS-8060NX instrument (Shimadzu, Japan). The instrument included a CBM-40lite system controller, CTO-40C column oven, SIL-40C XR autosampler, LC-40D XR solvent pump unit, FCV-DGU-403 degasser, and 20AH2 switching valve. The LC-MS/MS system was operated with a binary pump and equipped with a triple quadrupole mass spectrometer.
Pharmacokinetic parameters were assessed using PK Solutions software (version 2.0) with non-compartmental analysis. The AUC was calculated using the Linear-Log Trapezoidal Method. The maximum plasma concentration (Cmax) and time to reach maximum plasma concentration (Tmax) were taken directly from the graph.
as §3

[4] = plasma analyte after [6]-shogaol i.v. 3 mg/kg
[5] = intravenous administration 3 mg/kg of parent compound
[6] = oral administration 30 mg/kg of parent compound
[7] = plasma analyte after [6]-shogaol p.o. 30 mg/kg
[8] = plasma analyte after zingerone i.v. 3 mg/kg
[9] = plasma analyte after zingerone p.o. 30 mg/kg
[10] = plasma analyte after [6]-gingerol i.v. 3 mg/kg
[11] = plasma analyte after [6]-gingerol p.o. 30 mg/kg

## CCCCC/C=C/C(=O)CCc1ccc(O[C@@H]2O[C@H](C(=O)O)[C@@H](O)[C@H](O)[C@H]2O)c(OC)c1 [[6]-shogaol glucuronide]
[1]; [4]
  AUC(0-t): 7,966.49 ± 3,782.71 ng-h/mL
  AUC(0-∞): 7,974.90 ± 3,786.32 ng-h/mL
[2]; [5]
  % Recovery excretion, feces T 0–24 h: 0.003 ± 0.003%
  % Recovery excretion, feces T 24–48 h: 0.004 ± 0.001%
  % Recovery excretion, urine T 0–24 h: 0.153 ± 0.112%
  % Recovery excretion, urine T 24–48 h: <0.001%
[2]; [6]
  % Recovery excretion, urine T 0–24 h: 0.042 ± 0.037%
  % Recovery excretion, urine T 24–48 h: <0.001%
[3]; [7]
  AUC(0-t): 11.88 ± 1.87 ng·h/mL
  AUC(0-∞): 11.89 ± 1.87 ng·h/mL
  Cmax (obs): 18.54 ± 6.93 ng/mL
  Tmax (obs): 0.375 [0.25] h

## COc1cc(CCC(C)=O)ccc1O[C@@H]1O[C@H](C(=O)O)[C@@H](O)[C@H](O)[C@H]1O [zingerone glucuronide]
[1]; [8]
  AUC(0-t): 12,873.76 ± 12,580.54 ng-h/mL
  AUC(0-∞): 12,903.70 ± 12,585.11 ng-h/mL
[2]; [5]
  % Recovery excretion, urine T 0–24 h: 7.396 ± 6.349%
  % Recovery excretion, urine T 24–48 h: <0.001%
[2]; [6]
  % Recovery excretion, urine T 0–24 h: 4.245 ±3.009%
  % Recovery excretion, urine T 24–48 h: 0.166 ± 0.075%
[3]; after zingerone oral administration 30 mg/kg
  AUC(0–∞) of glucuronide compared to AUC(0–∞) of unconjugated compound: 6 fold
[3]; [9]
  AUC(0-t): 5847.24 ± 134.65 ng·h/mL
  AUC(0-∞): 5847.24 ± 134.65 ng·h/mL
  Cmax (obs): 4593.37 ± 1192.68 ng/mL
  Tmax (obs): 0.25 [0.00] h

## [6]-gingerol glucuronide
[1]; [10]
  AUC(0-t): 11,087.06 ± 7,432.61 ng-h/mL
  AUC(0-∞): 11,087.09 ± 7,432.598 ng-h/mL
[2]; [5]
  % Recovery excretion, urine T 0–24 h: 5.712 ± 2.768%
  % Recovery excretion, urine T 24–48 h: 0.146 ± 0.073%
[2]; [6]
  % Recovery excretion, urine T 0–24 h: 3.416 ± 1.735%
  % Recovery excretion, urine T 24–48 h: 0.036 ± 0.027%
[3]; [11]
  AUC(0-t): 549.22 ± 272.42 ng·h/mL
  AUC(0-∞): 603.05 ± 268.67 ng·h/mL
  Cmax (obs): 539.42 ± 377.66 ng/mL
  Tmax (obs): 0.25 [0.00] h
